# “And” between values parts separate entries of the source, which are not always exact repeats. Equal entries are not always repeated.
# System: HepG-2 cells
# Experiment: Whole genome bisulfite sequencing (WGBS), differentially methylated regions
# Assay type: cell-based, human
# Conditions: for number of DMRs, whole genome, hyper-methylated / number of DMRs, whole genome, hypo-methylated / number of DMRs, whole genome, total: 20 μM CA vs vehicle
# Procedure: After culturing HepG-2 cells in DMEM medium with HG for 72 hours followed by treating with 20 μM CA for 0, 3, 6, 12, and 24 hours, genomic DNA from 5×10^7 cells were extracted using QIAamp® DNA Mini Kit (QIAGEN, Hilden, Germany). Each sample, 6 μg, was sent to CD Genomics Co., Ltd (New York, USA) for analysis of WGBS. Total RNA was isolated using the Promega SV total RNA isolation system (Madison, WI, USA) with DNase treatment. Each sample, 2 μg, were sent to CD Genomics Co., Ltd (New York, USA) for analysis of RNA sequencing. The same samples, 2 μg, was used for the first-strand cDNA synthesis as recommended by the manufacturer (Invitrogen, Carlsbad, CA). RT-qPCR was performed using SYBR Green as the indicator on ABI 7500 Fast Real-Time PCR System (Applied Biosystems, Foster City, CA). Amplifications of j-actin or GAPDH were used as internal controls. Relative messenger RNA (mRNA) expression was quantified with the comparative cycle threshold (Ct) method using a sutiable primer set and was expressed as 2-ΔΔCt as described previously.
# Each sample, 1 μg of genomic DNA was fragmented by sonication to a mean size of approximately 200-400 bp, and subsequently used for WGBS library construction using Acegen Bisulfite-Seq Library Prep Kit (Acegen) following the manufacturer's instructions. The methylated adapter-ligated DNAs were purified using 0.8×Agencourt AMPure™ XP magnetic beads and subjected to bisulfite conversion by ZYMO EZ DNA Methylation-Gold™ Kit (Zymo Research Corporation, CA, USA). The converted DNAs were then amplified using 25 μl KAPA HiFi™ HotStart Uracil+ ReadyMix (2×) and 8-bp index primers with a final concentration of 1 μM each. The constructed WGBS libraries were then analyzed by Agilent 2100 Bioanalyzer and quantified by a Qubit fluorometer with Quant-iT™ dsDNA HS Assay Kit (Invitrogen), and finally sequenced on Illumina® Hiseq X™ Ten sequencer. After the preparation of the library, Qubit 2.0 and Agilent 2100 were used respectively to detect the concentration of the library and the Insert Size, and the effective concentration (>2 nM) of the library was quantitatively determined by Q-PCR to ensure the library quality.
# Samples were sequenced using the Illumina® HiSeq sequencing platform. Raw data generated on the sequencing platform contained a small percentage of low-quality data, which was then filtered to get high-quality data. Bsmap software was used to perform alignments of bisulfite-treated reads to a reference genome (GRCh37). Metilene software was used to identify differentially methylated regions (DMRs). DAVID software (website located at david.ncifcrf.gov/) was used to test the statistical enrichment of DMR related genes in the Gene Ontology (GO) and Kyoto Encyclopedia of Genes and Genomes (KEGG) pathways.
structure (smiles),measurement,setting,value
"CC(CCC[C@@H](C)[C@H]1CC[C@H]2[C@@H]3CC=C4C[C@@H](O)CC[C@]4(C)[C@H]3CC[C@]12C)C(=O)O (stereo partly drawn) [CA, 3β-hydroxy-5-cholestenoic acid]","number of DMRs, whole genome, hyper-methylated",3 hours,"11,818"
same,"number of DMRs, whole genome, hypo-methylated",3 hours,"215,747"
same,"number of DMRs, whole genome, total",3 hours,"227,565"
same,"number of DMRs, whole genome, hyper-methylated",6 hours,"10,537"
same,"number of DMRs, whole genome, hypo-methylated",6 hours,"497,685"
same,"number of DMRs, whole genome, total",6 hours,"508,222"
same,"number of DMRs, whole genome, hyper-methylated",12 hours,"14,658"
same,"number of DMRs, whole genome, hypo-methylated",12 hours,"544,916"
same,"number of DMRs, whole genome, total",12 hours,"559,574"
same,"number of DMRs, whole genome, hyper-methylated",24 hours,"8,808"
same,"number of DMRs, whole genome, hypo-methylated",24 hours,"679,051"
same,"number of DMRs, whole genome, total",24 hours,"687,859"
same,DMR (Methylation %) ADRA1A promoter region,"20 μM CA, 3 h",−30.28%
same,DMR (Methylation %) ADRA1B promoter region,"20 μM CA, 3 h",0%
same,DMR (Methylation %) ADRA1 promoter region,"20 μM CA, 3 h",−30.28%
same,DMR (Methylation %) BCL6 promoter region,"20 μM CA, 3 h",−20.42%
same,DMR (Methylation %) CACNA1D promoter region,"20 μM CA, 3 h",−55.12%
same,DMR (Methylation %) CALML3 promoter region,"20 μM CA, 3 h",−27.06% and −27.05%
same,DMR (Methylation %) CALML4 promoter region,"20 μM CA, 3 h",−21.08%
same,DMR (Methylation %) CAMKK2 promoter region,"20 μM CA, 3 h",0%
same,DMR (Methylation %) COX7B promoter region,"20 μM CA, 3 h",−30.9%
same,DMR (Methylation %) COX8A promoter region,"20 μM CA, 3 h",−25.87%
same,DMR (Methylation %) CPT1C promoter region,"20 μM CA, 3 h",−18.8%
same,DMR (Methylation %) CREB3L4 promoter region,"20 μM CA, 3 h",0%
same,DMR (Methylation %) CYP1A1 promoter region,"20 μM CA, 3 h",−30.07%
same,DMR (Methylation %) ESR2 promoter region,"20 μM CA, 3 h",0%
same,DMR (Methylation %) FBP1 promoter region,"20 μM CA, 3 h",0%
same,DMR (Methylation %) FGF1 promoter region,"20 μM CA, 3 h",−54.6%
same,DMR (Methylation %) FGF8 promoter region,"20 μM CA, 3 h",−19.97%
same,DMR (Methylation %) FGFR2 promoter region,"20 μM CA, 3 h",−26.28%
same,DMR (Methylation %) LDHA promoter region,"20 μM CA, 3 h",−29.00%
same,DMR (Methylation %) LDHAL6A promoter region,"20 μM CA, 3 h",0%
same,DMR (Methylation %) LDHC promoter region,"20 μM CA, 3 h",−20.18%
same,DMR (Methylation %) LEP promoter region,"20 μM CA, 3 h",0%
same,DMR (Methylation %) MIR29A promoter region,"20 μM CA, 3 h",−15.46%
same,DMR (Methylation %) MIRLET7B promoter region,"20 μM CA, 3 h",0%
same,DMR (Methylation %) MTOR promoter region,"20 μM CA, 3 h",−20.34%
same,DMR (Methylation %) NTRK3 promoter region,"20 μM CA, 3 h",0%
same,DMR (Methylation %) PDHA2 promoter region,"20 μM CA, 3 h",0%
same,DMR (Methylation %) PDHB promoter region,"20 μM CA, 3 h",−21.86%
same,DMR (Methylation %) PHKG1 promoter region,"20 μM CA, 3 h",−15.73%
same,DMR (Methylation %) PPARG promoter region,"20 μM CA, 3 h",0%
same,DMR (Methylation %) SDHA promoter region,"20 μM CA, 3 h",0%
same,DMR (Methylation %) SDHB promoter region,"20 μM CA, 3 h",0%
same,DMR (Methylation %) SPHK2 promoter region,"20 μM CA, 3 h",0%
same,DMR (Methylation %) UQCRC1 promoter region,"20 μM CA, 3 h",−23.76%
same,DMR (Methylation %) VDAC2 promoter region,"20 μM CA, 3 h",−27.41%
same,"number of DMRs in promoter region, hyper-methylated","20 μM CA, 3 hours","2,323"
same,"number of DMRs in promoter region, hypo-methylated","20 μM CA, 3 hours","12,431"
same,"number of DMRs in promoter region, total","20 μM CA, 3 hours","14,754"
same,DMR (Methylation %) ADRA1A promoter region,"20 μM CA, 6 h",−41.25%
same,DMR (Methylation %) ADRA1B promoter region,"20 μM CA, 6 h",−33.89%
same,DMR (Methylation %) ADRA1 promoter region,"20 μM CA, 6 h",−41.25%
same,DMR (Methylation %) BCL6 promoter region,"20 μM CA, 6 h",−43.30%
same,DMR (Methylation %) CACNA1D promoter region,"20 μM CA, 6 h",−69.06% and −69.10%
same,DMR (Methylation %) CALML3 promoter region,"20 μM CA, 6 h",−47.29%
same,DMR (Methylation %) CALML4 promoter region,"20 μM CA, 6 h",−31.79%
same,DMR (Methylation %) CAMKK2 promoter region,"20 μM CA, 6 h",−37.97%
same,DMR (Methylation %) COX7B promoter region,"20 μM CA, 6 h",−83.31%
same,DMR (Methylation %) COX8A promoter region,"20 μM CA, 6 h",−35.3%
same,DMR (Methylation %) CPT1A promoter region,"20 μM CA, 6 h",−41.69%
same,DMR (Methylation %) CPT1C promoter region,"20 μM CA, 6 h",−34.41%
same,DMR (Methylation %) CREB3L4 promoter region,"20 μM CA, 6 h",−36.38%
same,DMR (Methylation %) CYP1A1 promoter region,"20 μM CA, 6 h",−55.38%
same,DMR (Methylation %) ESR2 promoter region,"20 μM CA, 6 h",−33.80%
same,DMR (Methylation %) FBP1 promoter region,"20 μM CA, 6 h",−39.18%
same,DMR (Methylation %) FGF1 promoter region,"20 μM CA, 6 h",−37.79%
same,DMR (Methylation %) FGF8 promoter region,"20 μM CA, 6 h",−53.29%
same,DMR (Methylation %) FGFR2 promoter region,"20 μM CA, 6 h",−47.13%
same,DMR (Methylation %) LDHA promoter region,"20 μM CA, 6 h",−35.80%
same,DMR (Methylation %) LDHAL6A promoter region,"20 μM CA, 6 h",−38.96%
same,DMR (Methylation %) LDHC promoter region,"20 μM CA, 6 h",−31.45%
same,DMR (Methylation %) LEP promoter region,"20 μM CA, 6 h",−35.18%
same,DMR (Methylation %) MIR29A promoter region,"20 μM CA, 6 h",−32.98%
same,DMR (Methylation %) MIRLET7B promoter region,"20 μM CA, 6 h",−34.85%
same,DMR (Methylation %) MTOR promoter region,"20 μM CA, 6 h",−37.3%
same,DMR (Methylation %) NTRK3 promoter region,"20 μM CA, 6 h",−49.89%
same,DMR (Methylation %) PDHA2 promoter region,"20 μM CA, 6 h",−39.34%
same,DMR (Methylation %) PDHB promoter region,"20 μM CA, 6 h",−42.31%
same,DMR (Methylation %) PHKG1 promoter region,"20 μM CA, 6 h",−41.81%
same,DMR (Methylation %) PPARG promoter region,"20 μM CA, 6 h",−37.32%
same,DMR (Methylation %) SDHA promoter region,"20 μM CA, 6 h",−37.82%
same,DMR (Methylation %) SDHB promoter region,"20 μM CA, 6 h",−39.54%
same,DMR (Methylation %) SPHK2 promoter region,"20 μM CA, 6 h",−60.87%
